Key:
Assay in all cases: relative viability (nuclei count vs DMSO), 5 days (fraction); higher = more cells survive
PAC-1 + Foretinib = compound: C=CCc1cccc(/C=N/NC(=O)CN2CCN(Cc3ccccc3)CC2)c1O [PAC-1] + COc1cc2c(Oc3ccc(NC(=O)C4(C(=O)Nc5ccc(F)cc5)CC4)cc3F)ccnc2cc1OCCCN1CCOCC1 [Foretinib] (partner 0.25 µM)
How it was run: (§1)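 One day after seeding in 1536-well plates, lung cancer cell lines were dosed by pin tool. Dosing was either single-drug or a fixed anchor-drug dose plus five library-drug doses (not always all listed) in √10 steps. After 5 days, nuclei were stained in one fix-and-stain step and counted on 4× images, and relative viability is the nuclei count of treated wells over that of vehicle wells, given as the median of duplicate plates.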

Ibrutinib + Luminespib = compound: C=CC(=O)N1CCC[C@@H](n2nc(-c3ccc(Oc4ccccc4)cc3)c3c(N)ncnc32)C1 [Ibrutinib] + CCNC(=O)c1noc(-c2cc(C(C)C)c(O)cc2O)c1-c1ccc(CN2CCOCC2)cc1 [Luminespib] (partner 0.01 µM)
How it was run: as §1

BMX-IN-1 + Vorinostat = compound: C=CC(=O)Nc1cc(-n2c(=O)ccc3cnc4ccc(-c5ccc(NS(C)(=O)=O)cc5)cc4c32)ccc1C [BMX-IN-1] + O=C(CCCCCCC(=O)Nc1ccccc1)NO [Vorinostat] (partner 1 µM)
How it was run: as §1

PAC-1 + Pictilisib = compound: C=CCc1cccc(/C=N/NC(=O)CN2CCN(Cc3ccccc3)CC2)c1O [PAC-1] + CS(=O)(=O)N1CCN(Cc2cc3nc(-c4cccc5[nH]ncc45)nc(N4CCOCC4)c3s2)CC1 [Pictilisib] (partner 1 µM)
How it was run: as §1

EKVX
relative viability (PAC-1 + Foretinib; first compound 0.02 µM): 0.886 | relative viability (PAC-1 + Foretinib; first compound 0.06325 µM): 0.792 | relative viability (PAC-1 + Foretinib; first compound 0.2 µM): 0.69 | relative viability (PAC-1 + Foretinib; first compound 2 µM): 0.427 | relative viability (Ibrutinib + Luminespib; first compound 0.005 µM): 0.66 | relative viability (Ibrutinib + Luminespib; first compound 0.01581 µM): 0.784 | relative viability (Ibrutinib + Luminespib; first compound 0.05 µM): 0.856 | relative viability (Ibrutinib + Luminespib; first compound 0.1581 µM): 0.81 | relative viability (Ibrutinib + Luminespib; first compound 0.5 µM): 0.547 | relative viability (BMX-IN-1 + Vorinostat; first compound 0.02 µM): 0.668 | relative viability (BMX-IN-1 + Vorinostat; first compound 0.2 µM): 0.653 | relative viability (BMX-IN-1 + Vorinostat; first compound 0.6325 µM): 0.957 | relative viability (BMX-IN-1 + Vorinostat; first compound 2 µM): 0.698 | relative viability (PAC-1 + Pictilisib; first compound 0.02 µM): 0.453 | relative viability (PAC-1 + Pictilisib; first compound 0.06325 µM): 0.415 | relative viability (PAC-1 + Pictilisib; first compound 0.2 µM): 0.374 | relative viability (PAC-1 + Pictilisib; first compound 2 µM): 0.488

EMC-BAC-2
relative viability (PAC-1 + Foretinib; first compound 0.02 µM): 0.999 | relative viability (PAC-1 + Foretinib; first compound 0.06325 µM): 1.04 | relative viability (PAC-1 + Foretinib; first compound 0.2 µM): 0.936 | relative viability (PAC-1 + Foretinib; first compound 2 µM): 0.996 | relative viability (Ibrutinib + Luminespib; first compound 0.005 µM): 1.15 | relative viability (Ibrutinib + Luminespib; first compound 0.01581 µM): 1.14 | relative viability (Ibrutinib + Luminespib; first compound 0.05 µM): 1.25 | relative viability (Ibrutinib + Luminespib; first compound 0.1581 µM): 1.15 | relative viability (Ibrutinib + Luminespib; first compound 0.5 µM): 1.05 | relative viability (BMX-IN-1 + Vorinostat; first compound 0.02 µM): 0.497 | relative viability (BMX-IN-1 + Vorinostat; first compound 0.2 µM): 0.58 | relative viability (BMX-IN-1 + Vorinostat; first compound 0.6325 µM): 0.414 | relative viability (BMX-IN-1 + Vorinostat; first compound 2 µM): 0.45 | relative viability (PAC-1 + Pictilisib; first compound 0.02 µM): 0.549 | relative viability (PAC-1 + Pictilisib; first compound 0.06325 µM): 0.536 | relative viability (PAC-1 + Pictilisib; first compound 0.2 µM): 0.566 | relative viability (PAC-1 + Pictilisib; first compound 2 µM): 0.555

EPLC-272H
relative viability (PAC-1 + Foretinib; first compound 0.02 µM): 0.605 | relative viability (PAC-1 + Foretinib; first compound 0.06325 µM): 0.683 | relative viability (PAC-1 + Foretinib; first compound 0.2 µM): 0.68 | relative viability (PAC-1 + Foretinib; first compound 2 µM): 0.721 | relative viability (Ibrutinib + Luminespib; first compound 0.005 µM): 0.485 | relative viability (Ibrutinib + Luminespib; first compound 0.01581 µM): 0.433 | relative viability (Ibrutinib + Luminespib; first compound 0.05 µM): 0.211 | relative viability (Ibrutinib + Luminespib; first compound 0.1581 µM): 0.313 | relative viability (Ibrutinib + Luminespib; first compound 0.5 µM): 0.211 | relative viability (BMX-IN-1 + Vorinostat; first compound 0.02 µM): 0.351 | relative viability (BMX-IN-1 + Vorinostat; first compound 0.2 µM): 0.288 | relative viability (BMX-IN-1 + Vorinostat; first compound 0.6325 µM): 0.417 | relative viability (BMX-IN-1 + Vorinostat; first compound 2 µM): 0.383 | relative viability (PAC-1 + Pictilisib; first compound 0.06325 µM): 0.349 | relative viability (PAC-1 + Pictilisib; first compound 0.2 µM): 0.32 | relative viability (PAC-1 + Pictilisib; first compound 2 µM): 0.268

H3255
relative viability (PAC-1 + Foretinib; first compound 0.02 µM): 0.925 | relative viability (PAC-1 + Foretinib; first compound 0.06325 µM): 0.814 | relative viability (PAC-1 + Foretinib; first compound 0.2 µM): 0.883 | relative viability (PAC-1 + Foretinib; first compound 2 µM): 0.89 | relative viability (Ibrutinib + Luminespib; first compound 0.005 µM): 1.13 | relative viability (Ibrutinib + Luminespib; first compound 0.01581 µM): 0.945 | relative viability (Ibrutinib + Luminespib; first compound 0.1581 µM): 1.19 | relative viability (Ibrutinib + Luminespib; first compound 0.5 µM): 0.704 | relative viability (BMX-IN-1 + Vorinostat; first compound 0.02 µM): 0.787 | relative viability (BMX-IN-1 + Vorinostat; first compound 0.2 µM): 0.812 | relative viability (BMX-IN-1 + Vorinostat; first compound 0.6325 µM): 0.902 | relative viability (BMX-IN-1 + Vorinostat; first compound 2 µM): 0.76 | relative viability (PAC-1 + Pictilisib; first compound 0.02 µM): 0.454 | relative viability (PAC-1 + Pictilisib; first compound 0.06325 µM): 0.455 | relative viability (PAC-1 + Pictilisib; first compound 0.2 µM): 0.448 | relative viability (PAC-1 + Pictilisib; first compound 2 µM): 0.471

HARA
relative viability (PAC-1 + Foretinib; first compound 0.02 µM): 0.675 | relative viability (PAC-1 + Foretinib; first compound 0.06325 µM): 0.833 | relative viability (PAC-1 + Foretinib; first compound 0.2 µM): 0.863 | relative viability (PAC-1 + Foretinib; first compound 2 µM): 0.918 | relative viability (Ibrutinib + Luminespib; first compound 0.005 µM): 0.975 | relative viability (Ibrutinib + Luminespib; first compound 0.01581 µM): 0.748 | relative viability (Ibrutinib + Luminespib; first compound 0.05 µM): 0.548 | relative viability (Ibrutinib + Luminespib; first compound 0.1581 µM): 0.746 | relative viability (Ibrutinib + Luminespib; first compound 0.5 µM): 0.324 | relative viability (BMX-IN-1 + Vorinostat; first compound 0.02 µM): 0.507 | relative viability (BMX-IN-1 + Vorinostat; first compound 0.2 µM): 0.549 | relative viability (BMX-IN-1 + Vorinostat; first compound 0.6325 µM): 0.446 | relative viability (BMX-IN-1 + Vorinostat; first compound 2 µM): 0.506 | relative viability (PAC-1 + Pictilisib; first compound 0.02 µM): 0.414 | relative viability (PAC-1 + Pictilisib; first compound 0.06325 µM): 0.376 | relative viability (PAC-1 + Pictilisib; first compound 0.2 µM): 0.323 | relative viability (PAC-1 + Pictilisib; first compound 2 µM): 0.413

HCC-15
relative viability (PAC-1 + Foretinib; first compound 0.02 µM): 0.993 | relative viability (PAC-1 + Foretinib; first compound 0.06325 µM): 1.08 | relative viability (PAC-1 + Foretinib; first compound 0.2 µM): 0.985 | relative viability (PAC-1 + Foretinib; first compound 2 µM): 1.04 | relative viability (Ibrutinib + Luminespib; first compound 0.005 µM): 0.362 | relative viability (Ibrutinib + Luminespib; first compound 0.01581 µM): 0.278 | relative viability (Ibrutinib + Luminespib; first compound 0.05 µM): 0.488 | relative viability (Ibrutinib + Luminespib; first compound 0.1581 µM): 0.308 | relative viability (Ibrutinib + Luminespib; first compound 0.5 µM): 0.243 | relative viability (BMX-IN-1 + Vorinostat; first compound 0.02 µM): 0.833 | relative viability (BMX-IN-1 + Vorinostat; first compound 0.2 µM): 0.93 | relative viability (BMX-IN-1 + Vorinostat; first compound 0.6325 µM): 0.86 | relative viability (BMX-IN-1 + Vorinostat; first compound 2 µM): 0.869 | relative viability (PAC-1 + Pictilisib; first compound 0.02 µM): 0.683 | relative viability (PAC-1 + Pictilisib; first compound 0.06325 µM): 0.731 | relative viability (PAC-1 + Pictilisib; first compound 0.2 µM): 0.743 | relative viability (PAC-1 + Pictilisib; first compound 2 µM): 0.783

HCC-44
relative viability (Ibrutinib + Luminespib; first compound 0.005 µM): 1.11 | relative viability (Ibrutinib + Luminespib; first compound 0.01581 µM): 1.02 | relative viability (Ibrutinib + Luminespib; first compound 0.05 µM): 0.977 | relative viability (Ibrutinib + Luminespib; first compound 0.5 µM): 1.16 | relative viability (BMX-IN-1 + Vorinostat; first compound 0.02 µM): 1.16 | relative viability (BMX-IN-1 + Vorinostat; first compound 0.2 µM): 1.14 | relative viability (BMX-IN-1 + Vorinostat; first compound 0.6325 µM): 1.19 | relative viability (BMX-IN-1 + Vorinostat; first compound 2 µM): 1.12 | relative viability (PAC-1 + Pictilisib; first compound 0.02 µM): 0.455 | relative viability (PAC-1 + Pictilisib; first compound 0.06325 µM): 0.697 | relative viability (PAC-1 + Pictilisib; first compound 0.2 µM): 0.666 | relative viability (PAC-1 + Pictilisib; first compound 2 µM): 0.648

HCC-78
relative viability (PAC-1 + Foretinib; first compound 0.02 µM): 0.522 | relative viability (PAC-1 + Foretinib; first compound 0.06325 µM): 0.591 | relative viability (PAC-1 + Foretinib; first compound 0.2 µM): 0.634 | relative viability (PAC-1 + Foretinib; first compound 2 µM): 0.589 | relative viability (BMX-IN-1 + Vorinostat; first compound 0.02 µM): 0.383 | relative viability (BMX-IN-1 + Vorinostat; first compound 0.2 µM): 0.438 | relative viability (BMX-IN-1 + Vorinostat; first compound 0.6325 µM): 0.431 | relative viability (BMX-IN-1 + Vorinostat; first compound 2 µM): 0.41 | relative viability (PAC-1 + Pictilisib; first compound 0.02 µM): 0.179 | relative viability (PAC-1 + Pictilisib; first compound 0.06325 µM): 0.196 | relative viability (PAC-1 + Pictilisib; first compound 0.2 µM): 0.236 | relative viability (PAC-1 + Pictilisib; first compound 2 µM): 0.195

HCC-366
relative viability (PAC-1 + Foretinib; first compound 0.02 µM): 0.903 | relative viability (PAC-1 + Foretinib; first compound 0.06325 µM): 0.925 | relative viability (PAC-1 + Foretinib; first compound 0.2 µM): 0.899 | relative viability (PAC-1 + Foretinib; first compound 2 µM): 0.989 | relative viability (BMX-IN-1 + Vorinostat; first compound 0.02 µM): 0.791 | relative viability (BMX-IN-1 + Vorinostat; first compound 0.2 µM): 0.342 | relative viability (BMX-IN-1 + Vorinostat; first compound 0.6325 µM): 0.373 | relative viability (BMX-IN-1 + Vorinostat; first compound 2 µM): 0.33 | relative viability (PAC-1 + Pictilisib; first compound 0.02 µM): 0.203 | relative viability (PAC-1 + Pictilisib; first compound 0.06325 µM): 0.142 | relative viability (PAC-1 + Pictilisib; first compound 0.2 µM): 0.149 | relative viability (PAC-1 + Pictilisib; first compound 2 µM): 0.184

HCC-827
relative viability (PAC-1 + Foretinib; first compound 0.02 µM): 1.11 | relative viability (PAC-1 + Foretinib; first compound 0.06325 µM): 1.03 | relative viability (PAC-1 + Foretinib; first compound 0.2 µM): 0.964 | relative viability (PAC-1 + Foretinib; first compound 2 µM): 1.03 | relative viability (Ibrutinib + Luminespib; first compound 0.005 µM): 0.657 | relative viability (Ibrutinib + Luminespib; first compound 0.01581 µM): 0.355 | relative viability (Ibrutinib + Luminespib; first compound 0.05 µM): 0.589 | relative viability (Ibrutinib + Luminespib; first compound 0.1581 µM): 0.673 | relative viability (Ibrutinib + Luminespib; first compound 0.5 µM): 0.212 | relative viability (BMX-IN-1 + Vorinostat; first compound 0.02 µM): 0.485 | relative viability (BMX-IN-1 + Vorinostat; first compound 0.2 µM): 0.872 | relative viability (BMX-IN-1 + Vorinostat; first compound 0.6325 µM): 1.11 | relative viability (BMX-IN-1 + Vorinostat; first compound 2 µM): 0.798 | relative viability (PAC-1 + Pictilisib; first compound 0.02 µM): 1.12 | relative viability (PAC-1 + Pictilisib; first compound 0.06325 µM): 1.01 | relative viability (PAC-1 + Pictilisib; first compound 0.2 µM): 0.99 | relative viability (PAC-1 + Pictilisib; first compound 2 µM): 0.983

Reference: the supplement of paper PMC10307832
